# Literature values, collected in the CATMoS acute toxicity set (Mansouri et al. 2021).
# “And” between values parts separate entries of the source, which are not always exact repeats. Identical values can stand only once.
# Test: rat acute oral toxicity
# Conditions: in vivo
row,SMILES,LD50
1,CCc1cc2c(s1)N(C)C(=O)CN=C2c1ccccc1Cl,1460 mg/kg
2,Cc1cc(C)c(S(=O)(=O)O)c(C)c1Nc1ccc(Nc2c(C)cc(C)c(S(=O)(=O)O)c2C)c2c1C(=O)c1ccccc1C2=O,3350 mg/kg
3,CCCCCOc1ccc(Br)cc1COCCN(CC)CC,320 mg/kg
4,C=CCC1(C2C=CCC2)C(=O)N=C(O)NC1=O (centres undefined),205 mg/kg
5,COc1cc(C(Cl)(Cl)Cl)cc(Cl)n1,1500 mg/kg
6,CC(=O)Nc1ccc(OCC(O)CNC(C)C)cc1 (centres undefined),3460 mg/kg
7,S=C=Nc1ccc(N=C=S)cc1,21 mg/kg
8,O=[N+]([O-])c1cccc(S(=O)(=O)O)c1,11000 mg/kg
9,NC(N)=NCC=Cc1ccccc1,456 mg/kg
10,CCC(C)N(C(=O)SCc1ccccc1)C(C)CC (centres undefined),10000 mg/kg
11,O=CNC(N1CCOCC1)C(Cl)(Cl)Cl (centres undefined),990 mg/kg
12,Cc1ncoc1C#N,735 mg/kg
13,CCOC(=S)SSSC(=S)OCC,235 mg/kg
14,CC1(COCC2(C)CO2)CO1 (centres undefined),1680 mg/kg
15,CCOc1ccccc1OCC(O)CNCCNCC(O)COc1ccccc1OCC (centres undefined),560 mg/kg
16,COP(=O)(OC)OC(=C(Cl)Br)c1ccc(Cl)cc1Cl,107 mg/kg
17,CCOC(C)CO (centres undefined),7110 mg/kg
18,CSCc1cnc(C)c(O)c1CO,4300 mg/kg
19,O=C1CN=C(c2ccccn2)c2cc(Br)ccc2N1,1950 mg/kg
20,CSC(=S)N(C)C,62 mg/kg
21,C[N+](C)(C)CC(O)CC(=O)O (centres undefined),6890 mg/kg
22,Cc1ccc(OC(=O)c2ccccc2)cc1,2640 mg/kg
23,CC(O)C(=O)O (centres undefined),2100 mg/kg
24,CS(=O)(=O)OCCCN(CCCOS(C)(=O)=O)C1CCCCC1,375 mg/kg
25,CC(NCCNC(C)c1ccccc1)c1ccccc1 (centres undefined),1290 mg/kg

row,SMILES,LD50
1,CC(C)C1C=C2CC[C@H]3[C@](C)(CO)CCC[C@]3(C)[C@H]2CC1 (some centres undefined),70000 mg/kg
2,Cc1cccnc1-n1c(C)nc2ccccc2c1=O,395 mg/kg
3,CNCCC#N,2260 mg/kg
4,S=C1NCCS1,300 mg/kg
5,NCCNCCNCCN,2500 mg/kg and 2280 mg/kg
6,O=C1NCCN1c1ncc([N+](=O)[O-])s1,900 mg/kg
7,ClC(Cl)(Cl)CC1CO1 (centres undefined),1500 mg/kg
8,CN(C)CCN(Cc1ccc(Cl)cc1)c1ccccn1,920 mg/kg
9,CC(C)OP(O)(=S)OC(C)C,20200 mg/kg
10,N#CC(=O)c1cccc(Cl)c1Cl,50 mg/kg
11,c1ccc(N2CCNCC2)cc1,210 mg/kg
12,CCOC(=O)Cc1ccc(-c2ccccc2)cc1,385 mg/kg
13,CCN1C(=O)c2ccccc2C1Nc1ccc(OCCN2CCCCC2)cc1 (centres undefined),695 mg/kg
14,Clc1cc2c(cc1Cl)Oc1c(cc(Cl)c(Cl)c1Cl)O2,0.206 mg/kg
15,CNC(=O)OCc1cccc(COC(=O)NC)n1,1230 mg/kg
16,CN(C)CC[C@@H](c1ccc(Br)cc1)c1ccccn1,191 mg/kg
17,CCOP(=O)(OCC)ON=C(C1CC1)C1CC1,7.85 mg/kg
18,CCC(CO)NC(=O)C1C=C2c3cccc4[nH]cc(c34)CC2N(C)C1 (centres undefined),93 mg/kg
19,CCN(N=O)C(C)C,1100 mg/kg
20,CCOc1cc2c3c([nH]c2cc1N)CCCC3,810 mg/kg
21,CC(C)(O)c1ccccc1,1300 mg/kg
22,O=C(CCl)CC(=O)Nc1ccccc1,1820 mg/kg
23,COP(=O)(OC1CCCCC1)SC (centres undefined),240 mg/kg
24,Nc1c2c(nc3ccccc13)CCCC2O (centres undefined),176 mg/kg
25,CCCn1c(=O)[nH]c(=O)c2[nH]cnc21,481 mg/kg

row,SMILES,LD50
1,CN1CCCCC1C(CO)(c1ccccc1)c1ccccc1 (centres undefined),410 mg/kg
2,Oc1ccc(C(O)CNCCCCCCNCC(O)c2ccc(O)c(O)c2)cc1O (centres undefined),10000 mg/kg
3,COc1cc(N)c(Cl)cc1C(=O)NC1CCN(CCCOc2ccc(F)cc2)CC1OC (centres undefined),4170 mg/kg
4,Fc1ccc(C(c2ccccc2)(c2ccccc2F)n2ccnc2)cc1 (centres undefined),808 mg/kg
5,CN1CCCN=C1COC(=O)C(O)(c1ccccc1)C1CCCCC1 (centres undefined),1370 mg/kg
6,CCN(N=O)C(N)=O,300 mg/kg
7,CSCC[C@H](N)C(=O)O,36000 mg/kg
8,CCCCC(CC)COC(C[n+]1ccccc1)c1ccccc1 (centres undefined),250 mg/kg
9,CNC(=O)c1c(I)c(C(=O)NCC(=O)Nc2c(I)c(C(=O)O)c(I)c(C(=O)NCCO)c2I)c(I)c(N(C)C(C)=O)c1I,13300 mg/kg
10,CCC(O)CO (centres undefined),16000 mg/kg
11,CCCCCC/C=C/C1CC(=O)OC1=O (centres undefined),1100 mg/kg
12,CN(C)N=Nc1cccc(C(N)=O)c1,54 mg/kg
13,Oc1cccc2cc3cccc(O)c3c(O)c12,3220 mg/kg
14,C=CCOC(=O)C=Cc1ccccc1,1520 mg/kg
15,COC(=O)CCC[N+](C)(C)C,478 mg/kg
16,C=CC[C@@H]1C=C(C)C[C@H](C)C[C@H](OC)[C@H]2O[C@@](O)(C(=O)C(=O)N3CCCC[C@H]3C(=O)O[C@H](C(C)=C[C@@H]3CC[C@@H](O)[C@H](OC)C3)[C@H](C)[C@@H](O)CC1=O)[C@H](C)C[C@@H]2OC,134 mg/kg
17,CCCC(=O)CCC,3730 mg/kg
18,CCCCC(CC)COC(=O)CS (centres undefined),303 mg/kg
19,Cc1c(Cl)c(=O)oc2cc(OP(=O)(OCCCl)OCCCl)ccc12,900 mg/kg
20,CN(C)c1ncnc2c1ncn2CC1CC1,570 mg/kg
21,CCCC(=O)OC(=C(Cl)Cl)P(=O)(OC)OC,1100 mg/kg
22,O=C(CCl)CCl,20 mg/kg
23,CN1[C@@H]2CC[C@H]1C[C@@H](OC(c1ccccc1)c1ccc(Cl)cc1)C2 (some centres undefined),364 mg/kg
24,NC(=O)CCCCC1CCSS1 (centres undefined),1980 mg/kg
25,Clc1ccccc1CN1CCc2sccc2C1,1780 mg/kg

row,SMILES,LD50
1,CC1(C)NC(=O)NC1=O,7800 mg/kg
2,CCCCCCCCCCCCc1ccc(C)c(C[N+](C)(C)C)c1,389 mg/kg
3,O=C(NN=C1C=CC(=NO)C=C1)c1ccccc1,100 mg/kg
4,CCOC(C(=O)N(C)CCN(C)C)(c1ccccc1)c1ccccc1,565 mg/kg
5,CCC(Cl)Cl,6500 mg/kg
6,CSP(=O)(SC)SC,30 mg/kg
7,CN1Cc2c(N)cccc2C(c2ccccc2)C1 (centres undefined),267 mg/kg and 430 mg/kg
8,N=C(N)NN=C1C=CC(=NNC(N)=S)C=C1,750 mg/kg
9,CC1CCCc2n1c(=O)c(C(N)=O)c[n+]2C (centres undefined),600 mg/kg
10,CCC(=O)OCCOc1ccccc1,4400 mg/kg
11,CCOP(=S)(OCC)Oc1ccccc1[N+](=O)[O-],25 mg/kg
12,CC(=O)OC1c2c(ccc3ccc(=O)oc23)OC(C)(C)C1OC(=O)C=C(C)C (centres undefined),832 mg/kg
13,C[Se]C,2100 mg/kg
14,CN(C)CCCN1c2ccccc2CCc2cc(O)ccc21,2980 mg/kg
15,CN(CCO)c1nc(Nc2ccccc2)nc(Nc2ccc(/C=C/c3ccc(Nc4nc(Nc5ccccc5)nc(N(C)CCO)n4)cc3S(=O)(=O)O)c(S(=O)(=O)O)c2)n1,6890 mg/kg
16,CN(C)C(=O)n1c(Br)nc(Br)c1Br,50 mg/kg
17,Clc1ccc(COC(Cn2ccnc2)c2ccc(Cl)cc2Cl)c(Cl)c1 (centres undefined),920 mg/kg and 550 mg/kg
18,CCOC(=O)C1=C(C)NC(C)=C(C(=O)OCCN2CCCCC2)C1c1cccc([N+](=O)[O-])c1 (centres undefined),363 mg/kg
19,CC(C)(C)NC[C@H](O)COc1cccc2c1CCCC2=O,700 mg/kg
20,CCCCCCCCCCCOC(=O)Cc1ccc(N(CCCl)CCCl)cc1,50 mg/kg
21,COC(C)N(C)N=O (centres undefined),240 mg/kg
22,CN=C(O)O/N=C1\COCCS1,37 mg/kg
23,CC(=O)Nc1cccc2c3ccccc3n(C)c12,3120 mg/kg
24,CCO[Si](CCCS)(OCC)OCC,6110 mg/kg
25,CCC[N+](=O)[O-],455 mg/kg

row,SMILES,LD50
1,COc1ccc2c(c1OC)C13CCN(C)C(C2)C1(O)CCC(O)C3 (centres undefined),339 mg/kg
2,O=c1[nH]c2[nH]cnc(=O)c2[nH]1,1760 mg/kg
3,CCCOP(=O)(OCCC)Oc1cnn(C)c(=O)c1OC,15 mg/kg
4,O=C1CN=C(c2ccccc2)c2cc([N+](=O)[O-])ccc2N1,825 mg/kg
5,CC(=O)OCC[N+](C)(C)C,2500 mg/kg
6,CNc1c2c(nn1C)CCCC2,1850 mg/kg
7,CCOP(=O)(OCC)SCN1C(=O)c2ccccc2C1=O,11 mg/kg
8,CC=Cc1ccc(O)c(OC)c1,1560 mg/kg
9,CC(Oc1cccc2ccccc12)C(N)N=O (centres undefined),108 mg/kg
10,CC(C)(CNc1ccc(N=O)cc1)[N+](=O)[O-],2730 mg/kg
11,O=C1CCc2cc(C=CCN3CCN(c4ccc(Cl)cc4)CC3)ccc2N1,500 mg/kg
12,O=[N+]([O-])c1cccc2ccccc12,150 mg/kg
13,CC(C)CCCCCOC(=O)CS,348 mg/kg
14,CCCCCCOc1ccc(NNC=O)cc1,717 mg/kg
15,CN(CC#N)N=O,45 mg/kg
16,C=CCC(CC=C)(C(=O)OCCN(CC)CC)c1ccccc1,1500 mg/kg
17,CC(=O)Nc1ccc(-c2ccc(N)cc2)cc1,1630 mg/kg
18,O=S(=O)(O)c1cccc2c(S(=O)(=O)O)cccc12,30000 mg/kg
19,CCCC(=O)OC1CCC(N2CCCCC2)CC1 (centres undefined),1910 mg/kg
20,O=[N+]([O-])c1ccc(CCl)cc1,1810 mg/kg
21,Clc1ccc(N=Nc2ccc(NCCCN3CCCCC3)c3c2CCCC3)cc1,1120 mg/kg
22,O=C1CN=C(c2ccccc2F)c2cc(Cl)ccc2N1CC1CC1,10100 mg/kg
23,CCCCC[Si](OCC)(OCC)OCC,20000 mg/kg
24,CC(C)NC(=O)OCC(O)C1COc2ccccc2O1 (centres undefined),1500 mg/kg
25,FC(F)(F)c1nc2c(Cl)c(Br)c(Cl)c(Br)c2[nH]1,3.43 mg/kg

row,SMILES,LD50
1,CN1CC(O)N(c2nnc(C(C)(C)C)s2)C1=O (centres undefined),1540 mg/kg
2,Clc1nc(C(Cl)(Cl)Cl)c(Cl)c(Cl)c1Cl,1840 mg/kg
3,CC1C(C)(C)C2=C(C(=O)CCC2)C1(C)C (centres undefined),2900 mg/kg
4,CC(=O)O,3250 mg/kg
5,CCOC(C1=NCC(C)(CC)CN1)c1ccccc1 (centres undefined),220 mg/kg
6,CC(c1ccc(Cl)cc1)c1ccc(Cl)cc1,1000 mg/kg
7,Nc1ccc(C(=O)c2ccccc2)c(C(=O)O)c1,5400 mg/kg
8,CCCCOCCOCCOC(=O)c1ccccc1C(=O)OCCOCCOCCCC,9700 mg/kg
9,CN(C)CCN1C(=O)c2ccccc2N(C)c2ccccc21,220 mg/kg
10,CSCc1cnccn1,2150 mg/kg
11,NCCN1CCOCC1,3000 mg/kg
12,N=C(NN=Cc1ccc(Cl)cc1)NN=Cc1ccc(Cl)cc1,1350 mg/kg
13,CCCOC(C(=O)OC1CCN(C)CC1)(c1ccccc1)c1ccccc1,2250 mg/kg
14,CC(C)(C(=O)O)S(C)(=O)=O,5700 mg/kg
15,CCSP(=O)(OC)SCC,158 mg/kg
16,Nc1nc(N)c2nc(-c3ccccc3)c(N)nc2n1,400 mg/kg
17,CCCOP(=S)(OC)SCN1C(=O)c2ccccc2C1=O (centres undefined),90 mg/kg
18,CCCCCCCCCC=CC(=O)OC(=O)C=CCCCCCCCCC,3800 mg/kg
19,CCc1cnc(C(=O)O)c(C(=O)O)c1,3350 mg/kg
20,NC(=O)C(c1ccccc1)c1ccccc1,600 mg/kg
21,CC(C)COC(=O)CCc1ccco1,1950 mg/kg
22,O=C1CCC(C(=O)NC2CC2c2ccccc2)N1 (centres undefined),96 mg/kg
23,C[Si](Cn1cncn1)(c1ccc(F)cc1)c1ccc(F)cc1,674 mg/kg
24,C=C(C)C1CC=C(C)C(=O)C1 (racemic),1640 mg/kg
